Source: US9820487B2, “Abscinazole” (NATIONAL UNIVERSITY CORPORATION SHIZUOKA UNIVERSITY, priority 2014, dated 2017)

Legend:
[1] = system: seeds of thale cress (Arabidopsis thaliana, Col-0); assay: Thale cress seed germination inhibition test (2); assay type: in vivo; settings: 120 hours after seed plantation (FIG. 3)
Method: Seeds of thale cress (Arabidopsis thaliana, Col-0) were immersed in […] an aqueous solution of 70% ethanol for 30 minutes, subsequently in 500 μL of 100% ethanol for 1 minute, washed three times in 1 mL of distilled water, then immersed in distilled water and, in a dark place, verbalized at 4° C. for 3 days. A solution of the sample in methanol and a solution of ABA in methanol were put in a 1.5 mL microtube, and methanol was removed therefrom under reduced pressure. An aqueous solution of 0.5% agar (containing 1/2 MS medium inorganic salts) at 70° C. was added thereto, followed by stirring the resultant. The obtained solution was placed in a 96-well plate to provide the medium containing the sample. 20 to 30 vernalized seeds of thale cress were planted in each well and cultured at 22° C. under continuous light to monitor the number of seeds germinated over time. The germination rate was calculated in accordance with the following formula (1). Note that the medium prepared using methanol in the same manner as above was used as an untreated control and a germination rate of 100% was achieved 72 hours later from the seed plantation. Germination rates 72 hours later from the seed plantation are shown in FIG. 1 and initial growth conditions of thale cress 120 hours later are shown in FIG. 2.
Germination rate (%)=Number of seeds germinated/Number of seeds planted×100 . . . (1) […]

[2] = system: thale cress (Arabidopsis thaliaria, Col-0); assay: Thale cress growth test (survival after dry treatment); assay type: in vivo
Method: Five plant bodies of 2-week old thale cress (Arabidopsis thaliaria, Col-0) grown in Gelzan medium (containing MS medium mixed salts and 1% sucrose) were transplanted to a 200 mL-plastic pot containing a culture soil obtained by mixing vermiculite and premix in 1:1 and grown at 22° C. for 2 weeks under the condition of 16 hour light period—8 hour dark period. At this stage, the moisture content was adjusted so that the mass of the pot containing the plant and the culture soil was to be about 150 g. 50 ml, of a 50 μM aqueous solution of the (−) form of Example 1 (containing 0.05% Tween-20 and 0.2% MeOH) was sprayed to the above-ground part on 27 pots (135 seedlings of thale cress in total) once a day for 3 days. The pots on which above-ground part were sprayed with 50 mL of an aqueous solution free from the above compound (containing 0.05% Tween-20 and 0.2% MeOH) once a day for 3 days were used as controls. The pots were dry-treated for 12 days and subsequently watered, and the number of plant bodies survived 3 days later was counted, from which the survival rate was calculated in accordance with the following formula (5).
Survival rate (%)=Number of plant bodies survived (piece)/Total number of plant bodies (piece)×100 . . .(5)

SMILES: COCCOCCOCCOCC#Cc1cccc(/C=C(\[C@@H](O)C(C)(C)C)n2cncn2)c1 [Example 1 (−) Form, (−)-(S)-(E)-1-(3-(2,5,8,11-tetraoxatetradec-13-yn-14-yl)phenyl)-4,4-dimethyl-2-(1H-1,2,4-triazol-1-yl)pent-1-en-3-ol]
- seed germination inhibition compared with (−) form of Comparative Example 1 [1]: can inhibit the seed germination even in lower concentrations
- survival rate after dry treatment ([2]; 50 μM aqueous solution sprayed once a day for 3 days, dry-treated 12 days, watered, counted 3 days later, control 15%): 75%
- withering due to dryness ([2]; sprayed to thale cress, 50 μM, dry treatment 12 days): reduced
